Data reported in the CheMixHub viscosity set.

Assay: xn = mol fraction of the nth substance listed

CC(=O)[O-].CCCC[NH3+] + CO
101.3 kPa
Settings	viscosity [mPa·s]
293.15 K, x1 = 0.7993	256.5
298.15 K, x1 = 0.8988	312.5

CC(=O)CC(C)=O + CO
303.15 K, 101 kPa
Settings	viscosity [mPa·s]
x1 = 0.0502	0.51
x1 = 0.1002	0.516
x1 = 0.3002	0.547
x1 = 0.5	0.579
x1 = 0.6983	0.611
x1 = 0.9004	0.645
x1 = 0.9511	0.655

C=CC#N + CN(C)C=O
303.15 K, 101.3 kPa
Settings	viscosity [mPa·s]
x1 = 0.099	0.7313
x1 = 0.2027	0.6911
x1 = 0.2977	0.6444
x1 = 0.4005	0.5998
x1 = 0.497	0.5516
x1 = 0.5957	0.5028
x1 = 0.6984	0.4518
x1 = 0.798	0.4041
x1 = 0.895	0.3581

FC(F)(F)c1ccccc1 + CC(Cl)(Cl)Cl
298.15 K, 101.33 kPa
Settings	viscosity [mPa·s]
x2 = 0.103	0.5617
x2 = 0.201	0.572
x2 = 0.301	0.5865
x2 = 0.402	0.6017
x2 = 0.502	0.6199
x2 = 0.602	0.6413
x2 = 0.701	0.6677
x2 = 0.8	0.7
x2 = 0.85	0.7179

O=C1c2ccccc2C(=O)C1(O)O + C[N+](C)(C)CCO.[Cl-]
Settings	viscosity [mPa·s]
323.15 K, 100 kPa, x2 = 0.571	30500

CCCC[P+](CC)(CC)CC.N#Cc1ccc[n-]1 + OCC(O)CO
100 kPa
Settings	viscosity [mPa·s]
293.15 K, x1 = 0.259	933
293.15 K, x1 = 0.34	737
298.15 K, x1 = 0.004	876
298.15 K, x1 = 0.018	953
298.15 K, x1 = 0.129	932
298.15 K, x1 = 0.187	768
303.15 K, x1 = 0.058	695
303.15 K, x1 = 0.08	692

CC(C)(C)Br + CC(C)CO
viscosity [mPa·s], 101.3 kPa
Settings	x1 = 0.1028	x1 = 0.2047	x1 = 0.3013	x1 = 0.4041	x1 = 0.5068	x1 = 0.6029	x1 = 0.7033	x1 = 0.8031	x1 = 0.905
298.15 K	2.582	2.021	1.64	1.351	1.138	0.9943	0.8866	0.8146	0.757
313.15 K	1.718	1.405	1.168	0.9825	0.8486	0.7553	0.688	0.6382	0.6044

CN(C)c1ccccc1 + CC(C)CO
303.15 K, 101 kPa
Settings	viscosity [mPa·s]
x1 = 0.0545	2.804
x1 = 0.1056	2.755
x1 = 0.1875	2.663
x1 = 0.2546	2.576
x1 = 0.3526	2.434
x1 = 0.4278	2.316
x1 = 0.5047	2.189
x1 = 0.5869	2.044
x1 = 0.6514	1.926
x1 = 0.7348	1.767
x1 = 0.8025	1.628
x1 = 0.8621	1.501
x1 = 0.9285	1.345

CCCCC(C)CC (stereo not given) + C1C[C@@H]2[C@H]3CC[C@H](C3)[C@@H]2C1
viscosity [mPa·s], 100 kPa
Settings	x2 = 0.0994	x2 = 0.2004	x2 = 0.2996	x2 = 0.4001	x2 = 0.5008	x2 = 0.5973	x2 = 0.6998	x2 = 0.8016	x2 = 0.8999
293.15 K	0.577	0.657	0.755	0.882	1.044	1.249	1.521	1.882	2.336
298.15 K	0.547	0.62	0.708	0.824	0.971	1.154	1.399	1.722	2.125
303.15 K	0.519	0.589	0.667	0.772	0.905	1.065	1.294	1.585	1.945
308.15 K	0.495	0.557	0.63	0.726	0.848	1	1.201	1.457	1.788
313.15 K	0.472	0.53	0.597	0.685	0.796	0.935	1.118	1.357	1.65

C=CC#N + CCCCO
viscosity [mPa·s], 101.33 kPa
Settings	x1 = 0.1054	x1 = 0.2059	x1 = 0.305	x1 = 0.4063	x1 = 0.5073	x1 = 0.6039	x1 = 0.6962	x1 = 0.8074	x1 = 0.9006
298.15 K	1.797	1.363	1.065	0.849	0.69	0.581	0.499	0.429	0.386
303.15 K	1.596	1.221	0.965	0.776	0.637	0.539	0.468	0.407	0.369
308.15 K	1.424	1.102	0.881	0.714	0.594	0.505	0.442	0.385	0.352

C=CC#N + c1ccccc1
307.4 K, 101.33 kPa
Settings	viscosity [mPa·s]
x2 = 0.0966	0.494
x2 = 0.2512	0.448
x2 = 0.4788	0.395
x2 = 0.5188	0.386
x2 = 0.6633	0.357
x2 = 0.8844	0.32

CCCCN(CCCC)CCCC + CCCCCCCCCCO
viscosity [mPa·s], 101.3 kPa
Settings	x1 = 0.0952	x1 = 0.1901	x1 = 0.2866	x1 = 0.3816	x1 = 0.5195	x1 = 0.6185	x1 = 0.7198	x1 = 0.8029	x1 = 0.9006
303.15 K	7.192	5.845	4.754	3.874	2.91	2.358	1.928	1.658	1.378
313.15 K	5.659	4.596	3.721	3.026	2.288	1.892	1.586	1.388	1.175

CCCCN(CCCC)CCCC + CCCCCCCC
viscosity [mPa·s], 101 kPa
Settings	x1 = 0.0983	x1 = 0.1934	x1 = 0.395	x1 = 0.4909	x1 = 0.5915	x1 = 0.7854	x1 = 0.897
303.15 K	0.532	0.5833	0.7038	0.7674	0.838	0.9861	1.079
313.15 K	0.4675	0.5129	0.6183	0.6727	0.734	0.8553	0.9291

COC(C)OC + CC1COC(=O)O1
298.15 K, 101 kPa
Settings	viscosity [mPa·s]
x2 = 0.1205	4.91
x2 = 0.2621	6.2
x2 = 0.3779	7.53
x2 = 0.4836	9.05
x2 = 0.7185	13.82

CC(=O)CC(C)=O + CCO
303.15 K, 101 kPa
Settings	viscosity [mPa·s]
x1 = 0.05	0.896
x1 = 0.0997	0.825
x1 = 0.3	0.702
x1 = 0.5	0.655
x1 = 0.6989	0.644
x1 = 0.9	0.651
x1 = 0.948	0.657

CC(CC(C)(C)C)CC(C)(C)C + Cc1ccc(C)c(C)c1
viscosity [mPa·s], 102 kPa
Settings	x2 = 0.0923	x2 = 0.2008	x2 = 0.3004	x2 = 0.4003	x2 = 0.4979	x2 = 0.5999	x2 = 0.7003	x2 = 0.7999	x2 = 0.8992
293.15 K	1.24	1.16	1.09	1.03	0.975	0.93	0.891	0.864	0.848
303.15 K	1.05	0.981	0.926	0.882	0.845	0.808	0.776	0.75	0.736
313.15 K	0.906	0.855	0.813	0.774	0.739	0.709	0.679	0.657	0.647
323.15 K	0.789	0.749	0.716	0.683	0.652	0.625	0.602	0.582	0.573

CN(C)c1ccccc1 + COc1ccccc1
viscosity [mPa·s], 101 kPa
Settings	x1 = 0.1072	x1 = 0.2092	x1 = 0.3052	x1 = 0.406	x1 = 0.5082	x1 = 0.6053	x1 = 0.6916	x1 = 0.7895	x1 = 0.8939
293.15 K	1.123	1.171	1.21	1.247	1.281	1.309	1.331	1.349	1.359
298.15 K	1.039	1.083	1.124	1.159	1.191	1.22	1.241	1.255	1.27
303.15 K	0.957	0.994	1.032	1.064	1.092	1.116	1.135	1.142	1.158
308.15 K	0.887	0.917	0.949	0.98	1.004	1.025	1.036	1.042	1.056
313.15 K	0.811	0.838	0.866	0.897	0.92	0.936	0.947	0.955	0.969
318.15 K	0.767	0.791	0.815	0.845	0.869	0.883	0.889	0.898	0.911
323.15 K	0.709	0.728	0.751	0.778	0.8	0.811	0.814	0.823	0.836

CCC(C)(C)O + CO
298.15 K, 101.33 kPa
Settings	viscosity [mPa·s]
x2 = 0.1504	3.673
x2 = 0.2963	3.295
x2 = 0.3807	2.941
x2 = 0.4164	2.789
x2 = 0.4914	2.41
x2 = 0.6011	1.88
x2 = 0.7145	1.404
x2 = 0.7989	1.074
x2 = 0.8988	0.788

[2H]O[2H] + [Cl-].[K+]
viscosity [mPa·s], 101 kPa
Settings	x2 = 0.005	x2 = 0.01	x2 = 0.022	x2 = 0.04	x2 = 0.064
298.15 K	1.095	1.08	1.076	1.089	1.101
308.15 K	0.868	0.859	0.871	0.889	0.912
318.15 K	0.714	0.709	0.732	0.755	0.784

CC(C)(C)Br + CC(C)(C)O
viscosity [mPa·s], 101.3 kPa
Settings	x1 = 0.1003	x1 = 0.2034	x1 = 0.3015	x1 = 0.4024	x1 = 0.5028	x1 = 0.6049	x1 = 0.705	x1 = 0.7981	x1 = 0.8958
298.15 K	2.648	1.858	1.458	1.208	1.026	0.9136	0.8363	0.7868	0.7483
313.15 K	1.504	1.165	0.9832	0.8491	0.7568	0.6855	0.6408	0.6119	0.595
